# In patent US6465521B1, “Composition for desorbing bacteria” (Ramot University Authority for Applied Research & …, priority 1988, dated 2002):
# Assays:
# Type in all cases: cell-based
# [1] = system: Acinetobacter calcoaceticus RAG-1 (ATCC 31012); experiment: Adhesion of RAG-1 to various oils (percent drop in turbidity after vortexing with oil); details: for Percent adhesion to: mineral oil 50 / Percent adhesion to: n-nexadecane / Percent adhesion to: soybean oil: 0.16 ml of 0.5% detergent added, vortexed 2 min
# Experimental: In one experiment Acinetobacter calcoaceticus RAG-1 (ATCC 31012) cells were grown overnight with vigorous shaking at 30 C in brain heart infusion broth. The cells were harvested by centrifugation and washed twice in 0.2% saline. The cells were then suspended in 0.2% saline to a corrected optical density of about 15 at 400 nm (1 cm light path). To 1.2 ml of suspended bacteria in 4 ml square disposable polystyrene cuvettes were added the following: 0.16 ml of 0.5% detergent in water (or water for control) and 0.24 ml water. Following brief mixing, 0.2 ml of oil was added (vs. controls with no oil added) and the mixtures vortexed vigorously for 2 min. Following about thirty minutes, the corrected turbidity of the lower aqueous phase was measured at 400 nm. Adhesion is calculated as the percent drop in turbidity following the mixing procedure.
# The ability of another cationic surface-active agent, chlorhexidine digluconate, to enhance microbial adhesions to oil droplets is shown in the following experiment. Actnetobacter calcoaceticus RAG-1 (ATCC 31012) cells were grown overnight with vigorous shaking at 30 C in brain heart infusion broth. The cells were harvested, washed by centrifugation, and suspended in 0.2% saline to a corrected optidal density of ca. 18 at […] (1 cm light path). To 1.2 ml of suspended bacteria in 4 ml square disposable polystyrene cuvettes were added the following: 0.16 ml of 0.5% chlorhexidine digluconate in water (or water for control) and 0.24 ml water. To each cuvette 0.2 ml of oil was added (vs. control with no oil added) and the mixtures vortexed vigorously for 2 min. After about thirty minutes, the turbidity of the lower aqueous phase was measured at 400 nm and corrected for non-linearity by a standard curve. Adhesion is calculated as the percent drop in corrected turbidity following the mixing procedure.
# Escherichia coli CSH 57 = experiment: Adhesion of Escherichia coli CSH 57 to hexadecane; details: 0 without
# Candida albicans = experiment: Adhesion of the yeast Candida albicans to hexadecane; details: for adhesion of C. albicans to hexadecane: 0.16% cetyl pyridinium chloride; for adhesion of the yeast Candida albicans: 20 without
# [2] = system: Acinetobacter calcoaceticus MR-481; experiment: Adhesion of Acinetobacter calcoaceticus MR-481 to oil droplets; details: 0 without
# [3] = 0.16 ml of 0.5% chlorhexidine digluconate added, 0.2 ml oil
compound,measurement,setting,value
"CCCCCCCCCCCCCCCC[n+]1ccccc1 [Cetylpyridinium chloride, cetylpyridinium chloride]",Percent adhesion to: mineral oil 50,[1]; 0.2 ml oil,80%
same,Percent adhesion to: n-nexadecane,[1]; 0.2 ml oil,83%
same,Percent adhesion to: soybean oil,[1]; 0.2 ml oil,47%
same,adhesion of Escherichia coli CSH 57 to hexadecane,Escherichia coli CSH 57; 0.08% cetylpyridinium chloride present,98%
same,adhesion of C. albicans to hexadecane,Candida albicans; 0.8% NaCl present,18%
same,adhesion of C. albicans to hexadecane,Candida albicans; no NaCl,100%
same,Adhesion of Acinetobacter calcoaceticus MR-481,[2]; 0.18% of cetylpyridinium chloride,97%
"N=C(NCCCCCCNC(=N)NC(=N)Nc1ccc(Cl)cc1)NC(=N)Nc1ccc(Cl)cc1.O=C(O)[C@H](O)[C@@H](O)[C@H](O)[C@H](O)CO.O=C(O)[C@H](O)[C@@H](O)[C@H](O)[C@H](O)CO [Chlorhexidine digluconate, chlorhexidine digluconate]",Percent adhesion to Commerical soybean oil,[1]; [3],89%
same,Percent adhesion to Sigma soybean oil,[1]; [3],90%
same,Percent adhesion to isohexadecane,[1]; [3],94%
same,Percent adhesion to n-hexadecane,[1]; [3],95%
same,adhesion of Escherichia coli CSH 57 to hexadecane,Escherichia coli CSH 57; 0.1% chlorhexidine digluconate present,98%
same,adhesion of the yeast Candida albicans,Candida albicans; 0.16% chlorhexidine digluconate,100%
CCCCCCCCCCCCOS(=O)(=O)[O-].[Na+] [Sodium dodecyl sulphate],Percent adhesion to: mineral oil 50,[1]; 0.2 ml oil,0%
same,Percent adhesion to: n-nexadecane,[1]; 0.2 ml oil,0%
same,Percent adhesion to: soybean oil,[1]; 0.2 ml oil,0%
same,adhesion to all three test oils,[1]; added at the same concentration as the cetylpyridinium chloride (w/v),0%
chitosan,adhesion of Escherichia coli CSH 57 to hexadecane,Escherichia coli CSH 57; 0.015% chitosan present,97%
same,adhesion of the yeast Candida albicans,Candida albicans; 0.025% chitosan,95%
same,Adhesion of Acinetobacter calcoaceticus MR-481,[2]; 0.019% of chitosan,99%
